Experiment [1] deals with bone resorption. In words: Tablets given orally to a patient afflicted with Paget's disease (Example 7). The format is in vivo. To be noted: 25 mg P per tablet, orally twice daily for 6 months, patient of approximately 70 kilograms. Here is the method: Tablets are prepared by conventional methods, formulated as follows: […]
Experiment [2] relates to parathyroid hormone (PTH)-induced rise in serum total and ionized calcium levels. Put plainly: Thyroparathyroidectomized (TPTX) rat model, in vivo bone resorption inhibition potency. More on the design: species or system male Wistar rats. The following applies: subcutaneous injection, daily for 4 days, TPTX rats, PTH challenge; lowest dose that decreases the rise in serum calcium. How it is done:
The compounds are evaluated for in vivo bone resportion inhibition potency by an animal model system known as the thyroparathyroidectomized (TPTX) rat model. The general principles of this model system are disclosed in Russell et al., Calcif. Tissue Research, 6, 183-196 (1970), and in Muhlbauer and Fleisch, Mineral Electrolyte Metab., 5, 296-303 (1981), the disclosures of which are incorporated herein by reference. The basic biochemical concept of the TPTX system is inhibition of the parathyroid hormone (PTH)-induced rise in serum total and ionized calcium levels by the respective bone active polyphosphonates.
Low calcium and low phosphorous diets used are prepared by Teklad^R Test Diets (Harlan Industries, Madison, Wisconsin 53711) in a pellet form of approximately 0.18% calcium and 0.22% phosphorous. The diets contain all the essential vitamins and minerals required for the rat, with the exception of calcium and phosphorous. The calcium and phosphorous levels of the pellets are verified analytically.
PTH is acquired as a powdered bovine extract (Sigma Chemical Co., P. O. Box 14508, St. Louis, Missouri, order #P-4410). PTH is prepared in 0.9% saline such that the final concentration is 100 µg PTH/ml, or approximately 200 U.S.P. units/ml. All solutions are filtered through a #4 Whatman Filter Paper and refiltered through a 0.45 µm Metricel ^R filter.
All solutions of compounds to be tested for bone resorption inhibition potency are prepared for subcutaneous injection in 0.9% normal saline and adjusted to pH 7.4 using NaOH and/or HCl. Dose solution calculation is made by considering the mass of powder (based on molecular weight, hydration) of the active material in mg/kg (body weight) that corresponds to mg P/kg. Concentrations are based on dosing 0.2 ml/100 grams of body weight. Typically, all compounds are administered at 0.01, 0.1, and 1.0 mg P/kg/day for 4 days in order to determine the lowest effective dose ("LED"). Where necessary the test is repeated, whereby the animals are administered with 0.5 LED in order to refine the determination of LED. Adjustments in dosage based on changes in body weight are made on a daily basis.
In this study 50 male Wistar rats weighing approximately 150-160 grams are thyroparathyroidectomized surgically by the breeder (Charles River Breeding Laboratories). All rats are double housed on arrival in suspended cages with Purina Laboratory Rodent Chow^R and tap water ad libitum. After acclimation to the laboratory environment for 3-5 days, the rats are placed on a low calcium, low phosphorous (.18%/.22%) diet (Teklad^R) and given 2% (W/V) calcium gluconate supplemented deionized water via water bottles.
On day three of low calcium diet, all rats are weighed. On day four, all rats are anesthetized with Ketaset^R (Ketamine Hydrochloride, 100 mg/ml, Bristol Myers), 0.10 ml/rat, and then bled from the retro-orbital venous plexus for serum total calcium analysis using Flame Atomic Absorption (FAA) or Nova 7+7 Automated Calcium Analyzer. All rats weighing less than 150 grams are eliminated from the study. Animals are then randomized statistically such that the mean total serum calcium for each group is the same. Only rats deemed hypocalcemic (total serum calcium ≦8.0 mg/dl) are placed in study groups comprising six animals per group.
Treatments with the various experimental compounds commence on day 6 and last through day 9 of the study. Dose solutions are prepared to be given at a constant rate of 0.2 ml/100 grams of body weight subcutaneously in the vental skin flap where the hind leg meets the torso. All rats are weighed and dosed daily. A 25 gauge 5/8" needle is used to administer drug, alternating right and left dose sites daily. On day 8, animals are changed to deionized, distilled water via water bottles. On day 9 all rats are fasted in the afternoon at approximately 4:0 P.M. On day 10 of study no treatment is given. […]

Experiment [3] deals with bone resorption. Put plainly: Schenk model, in vivo bone resorption inhibition. On the set-up: species or system male Sprague Dawley rats. To be noted: subcutaneous injection, daily for 7 days, tibia metaphyseal trabecular bone content. How it is done: The compounds are evaluated for in vivo bone resorption inhibition and mineralization inhibition in an animal model system known in the field of bone metabolism as the Schenk Model. The general principles of this model system are disclosed in Shinoda et al., Calcif.
Preweaning 17-day-old (30 gms) male Sprague Dawley rats (Charles River Breeding Laboratories) are shipped with their mothers and placed in plastic cages with their mothers upon arrival. At 19 days of age, pups receiving Rat Chow and water ad libitum are randomly allocated into treatment or control groups comprising seven animals per group. On day 1 and again on day 7 all animals are given an intraperitoneal ("IP") injection of Calcein (1% solution in 0.9% saline solution; dosed at 0.2 ml/100 g body weight). On day 4 all animals are given an IP injection of tetracycline hydrochloride (1% solution in 0.9% saline solution; dosed at 0.2 ml/100 g body weight). These compounds label actively mineralizing bone and cartilage.
All solutions are prepared for subcutaneous injection in 0.9% normal saline and adjusted to pH 7.4 using NaOH and/or HCl. Dose solution calculation is made by considering the mass of powder (based on molecular weight, hydration) of the active material in mg/kg (body weight) that corresponds to mgP/kg. Concentrations are based on dosing 0.2 ml/100 g body weight. […] Compounds showing activity at 0.1 mg P/kg/day are then tested at logarithmic decrements down to 0.001 mg P/kg/day. Adjustments in dosage based on changes in body weight are made on a daily basis.
On day 8 after the start of dosing, all animals are sacrificed by IP overdose of pentabarbitol. Tibias are dissected free and placed in 70% ethyl alcohol. […] The tibia is sectioned longitudinally through the metaphyseal area. Specimens are stained on one surface with silver nitrate and mounted on microscope slides for evaluation with a Quantimet Image Analyzer (Cambridge Instruments, Inc.) using both incandescent and ultraviolet illumination. Metaphyseal trabecular bone content is measured in the region between the fluorescent label and the growth plate: expressed as percent of total area (bone + marrow). Epiphyseal growth plate width is obtained as the mean value of 10 equally-spaced measurements across the section.
Statistical evaluation of data is made using parametric and non-parametric analysis of variance and Wilcoxons rank sum test to determine a statistically significant effect compared to control animals.
The Schenk model provides data for in vivo bone resorption inhibition by the compounds.

Experiment [4] concerns bone resorption. In words: Capsules given orally to a patient afflicted with osteoporosis (Example 6). To be noted: 25 mg P per capsule, orally twice daily for 6 months, patient of approximately 70 kilograms. The class given is in vivo. How it is done: Capsules are prepared by conventional methods, comprised as follows: […]
The subject of experiment [5] is hypercalcemia of malignancy. Put plainly: Injectable solution in patients with hypercalcemia of malignancy (Example 8). To be noted: 0.07 mg P in 1.0 ml saline, pH 7.4, one injection daily for 4 days, patients of approximately 70 kilograms. The format is in vivo. Here is the method:
Injectable solutions are prepared by conventional methods using 1.0 ml of physiological saline solution and 0.07 mg P of N-(2'-(3'-methyl)-piperidinylidene)-amino-methane diphosphonic acid, adjusted to pH = 7.4.

In the next experiment the test system is skeleton. To be noted: Technetium-99m labelled, bone scintigraphy; Unterspann 1976; cited from earlier work.
In another experiment the test system is hamsters' incisors. To be noted: parenteral administration to hamsters; Landeck and Binus 1980; cited from earlier work.

SMILES strings stand for the structures.

Here are results for eight molecules from patent publication EP0274158B1, “Novel heterocycle-substituted diphosphonate compounds, pharmaceutical compositions, and methods of treating abnormal calcium and phosphate matabolism” (Norwich Eaton Pharmaceuticals, Inc., priority 1986, dated 1988).

As for `O=P(O)(O)C(O)(CC1CCCCN1)P(=O)(O)O` (stereo not shown) [2-(2'-piperidinyl)-1-hydroxy-ethane-1,1-diphosphonic acid], in the experiment on bone resorption [1], the “bone resorption in a patient afflicted with Paget's disease” value is “substantially reduce bone resorption”.
Consider `O=P(O)(O)C(CC1CCCCN1)P(=O)(O)O` (stereo not shown) [2-(2'-piperidinyl)-EDP, 2-(2'-piperidinyl)-ethane-1,1-diphosphonic acid], for which, in experiment [2], the “Lowest Effective (Antiresorptive) Dose-TPTX” value turned out to be 0.01 mg P/kg. Also, in the experiment on bone resorption [3], the “Lowest Effective (Antiresorptive) Dose - Schenk; Schenk LED” value (shortened to “Lowest Effective … Schenk LED”) was determined as 0.01 mg/P/kg. The “bone resorption in a patient afflicted with osteoporosis” value in the experiment on bone resorption [4] is given as “substantially reduce bone resorption”.
For `NCCC(O)(P(=O)(O)O)P(=O)(O)O` [APD, 3-amino propane-1-hydroxy-1,1-DP], in experiment [2], the “Lowest Effective (Antiresorptive) Dose-TPTX” value worked out at 0.1 mg P/kg. Moreover, the “Lowest Effective … Schenk LED” value with bone resorption [3] is 0.1 mg/P/kg.
Turning to `O=P(O)(O)C(Cl)(Cl)P(=O)(O)O` [Cl₂MDP, dichloromethane DP], in experiment [2], the “Lowest Effective (Antiresorptive) Dose-TPTX” value turned out to be 1.0 mg P/kg. Also, the “Lowest Effective … Schenk LED” value in the experiment with bone resorption [3] is recorded as 1.0 mg/P/kg.
The corresponding values for `CC(O)(P(=O)(O)O)P(=O)(O)O` [EHDP, ethane-1-hydroxy-1,1-diphosphonic acid] are 1.0 mg P/kg and 1.0 mg/P/kg.
In the case of `O=P(O)(O)C(NC1=NCCCN1)P(=O)(O)O` [N-(2'-(1',3'-diazinylidene))AMDP, N-(2'-(1',3'-diazinylidene))-aminomethane diphosphonic acid], the “Lowest Effective (Antiresorptive) Dose-TPTX” value in experiment [2] worked out at 0.001 mg P/kg.
With `CC1CCCN=C1NC(P(=O)(O)O)P(=O)(O)O` (stereo not shown) [N-(2'-(3'-methyl)piperidinylidene)AMDP, N-(2'-(3'-methyl)-piperidinylidene)-amino-methane diphosphonic acid], in experiment [2], the “Lowest Effective (Antiresorptive) Dose-TPTX” value stood at 0.001 mg P/kg. Further, in the experiment on bone resorption [3], the “Lowest Effective … Schenk LED” value is listed as 0.001 mg/P/kg. In experiment [5], the “alleviation of hypercalcemia of malignancy” value is reported as “appreciable alleviation of hypercalcemia of malignancy”.
For `O=P(O)(O)C(N1CCCCC1)P(=O)(O)O` [N-piperidinyl-methane-diphosphonic acid], the “skeleton activity compared with EHDP” value in the experiment on skeleton was “less skeleton activity than EHDP”. Further, the “effect on the mineralization of the incisors” value with hamsters' incisors is given as “Little or no effect on the mineralization of the incisors”.
